Results reported in publication PMC10041525, “New Dual Inhibitors of Bacterial Topoisomerases with Broad-Spectrum Antibacterial Activity and In Vivo Efficacy against Vancomycin-Intermediate Staphylococcus aureus” (Journal of Medicinal Chemistry, 2023).

Legend:
Format in all cases: cell-based
[1] = system: 100 A. baumannii strains (50 MDR, 50 non-MDR); assay: MIC broth microdilution at IHMA Europe, panel of 100 strains
[2] = system: E. coli ATCC 35218; assay: IHMA QC MIC
Procedure: The panel of Hungarian clinical isolates and controls measured following the same method as detailed above, and albeit measurements were carried out in 384-well microtiter plates (Corning Inc.).

[3] = system: E. coli ATCC 25922; assay: IHMA QC MIC

piperacillin/tazobactam [Piperacillin Tazobactam]
MIC ([1]; A. baumannii IHMA 2193607, Venezuela 2020, MDR): >128 µg/mL | MIC ([1]; A. baumannii IHMA 2195460, Italy 2020, MDR): >128 µg/mL | MIC ([1]; A. baumannii IHMA 2196914, South Africa 2020, MDR): >128 µg/mL | MIC ([1]; A. baumannii IHMA 2196959, South Africa 2020, MDR): >128 µg/mL | MIC ([1]; A. baumannii IHMA 2203763, Spain 2020, MDR): >128 µg/mL | MIC ([1]; A. baumannii IHMA 2205144, Korea, South 2020, MDR): >128 µg/mL | MIC ([1]; A. baumannii IHMA 2206459, Taiwan 2020, MDR): >128 µg/mL | MIC ([1]; A. baumannii IHMA 2206507, Taiwan 2020, Non-MDR): ≤0.25 µg/mL | MIC ([1]; A. baumannii IHMA 2212575, Hungary 2020, Non-MDR): 4 µg/mL | MIC ([1]; A. baumannii IHMA 2215307, Hong Kong 2020, Non-MDR): 1 µg/mL | MIC ([1]; A. baumannii IHMA 2216586, Taiwan 2020, MDR): >128 µg/mL | MIC ([1]; A. baumannii IHMA 2223200, Colombia 2020, Non-MDR): ≤0.25 µg/mL | MIC ([1]; A. baumannii IHMA 2224017, Panama 2020, MDR): >128 µg/mL | MIC ([1]; A. baumannii IHMA 2224303, Panama 2020, Non-MDR): 16 µg/mL | MIC ([1]; A. baumannii IHMA 2231797, Greece 2020, MDR): >128 µg/mL | MIC ([1]; A. baumannii IHMA 2233099, Guatemala 2020, MDR): >128 µg/mL | MIC ([1]; A. baumannii IHMA 2233430, Kazakhstan 2020, MDR): >128 µg/mL | MIC ([1]; A. baumannii IHMA 2233548, Kazakhstan 2020, Non-MDR): ≤0.25 µg/mL | MIC ([1]; A. baumannii IHMA 2238964, Thailand 2020, MDR): >128 µg/mL | MIC ([1]; A. baumannii IHMA 2239052, Thailand 2020, Non-MDR): ≤0.25 µg/mL | MIC ([1]; A. baumannii IHMA 2261047, Belgium 2020, MDR): >128 µg/mL | MIC ([1]; A. baumannii IHMA 2261633, Canada 2020, Non-MDR): ≤0.25 µg/mL | MIC ([1]; A. baumannii IHMA 2274234, South Africa 2020, MDR): >128 µg/mL | MIC ([1]; A. baumannii IHMA 2274364, South Africa 2020, MDR): >128 µg/mL | MIC ([1]; A. baumannii IHMA 2275237, Chile 2020, Non-MDR): ≤0.25 µg/mL | MIC ([1]; A. baumannii IHMA 2275751, Jordan 2020, MDR): >128 µg/mL | MIC ([1]; A. baumannii IHMA 2316205, United States 2020, MDR): >128 µg/mL | MAX (maximum MIC; all strains inhibited) ([1]; MDR n = 50): >128 µg/mL | MIC50 ([1]; MDR n = 50): >128 µg/mL | MIC90 ([1]; MDR n = 50): >128 µg/mL | MIN (minimum MIC) ([1]; MDR n = 50): >128 µg/mL | Percentage I ([1]; MDR n = 50): 0% | Percentage R ([1]; MDR n = 50): 100% | Percentage S ([1]; MDR n = 50): 0% | Cumulative % at MIC ([1]; MDR n=50, MIC >128 µg/mL): 100% | No. of isolates at MIC ([1]; MDR n=50, MIC >128 µg/mL): 50 | MAX (maximum MIC; all strains inhibited) ([1]; all isolates n = 100): >128 µg/mL | MIC50 ([1]; all isolates n = 100): 16 µg/mL | MIC90 ([1]; all isolates n = 100): >128 µg/mL | MIN (minimum MIC) ([1]; all isolates n = 100): ≤0.25 µg/mL | Percentage I ([1]; all n = 100, CLSI breakpoints): 0% | Percentage R ([1]; all n = 100, CLSI breakpoints): 50% | Percentage S ([1]; all n = 100, CLSI breakpoints): 50% | Cumulative % at MIC ([1]; all n=100, MIC 0.5 µg/mL): 36% | No. of isolates at MIC ([1]; all n=100, MIC 0.5 µg/mL): 1 | Cumulative % at MIC ([1]; all n=100, MIC 1 µg/mL): 37% | No. of isolates at MIC ([1]; all n=100, MIC 1 µg/mL): 1 | Cumulative % at MIC ([1]; all n=100, MIC 2 µg/mL): 39% | No. of isolates at MIC ([1]; all n=100, MIC 2 µg/mL): 2 | Cumulative % at MIC ([1]; all n=100, MIC […] µg/mL): 50% | No. of isolates at MIC ([1]; all n=100, MIC […] µg/mL): 3 | Cumulative % at MIC ([1]; all n=100, MIC >128 µg/mL): 100% | No. of isolates at MIC ([1]; all n=100, MIC >128 µg/mL): 50 | Cumulative % at MIC ([1]; all n=100, MIC ≤[…]): 35% | No. of isolates at MIC ([1]; all n=100, MIC ≤[…]): 35 | MAX (maximum MIC) ([1]; non-MDR n = 50): 16 µg/mL | MIC50 ([1]; non-MDR n = 50): ≤0.25 µg/mL | MIC90 ([1]; non-MDR n = 50): 4 µg/mL | MIN (minimum MIC) ([1]; non-MDR n = 50): ≤0.25 µg/mL | Percentage I ([1]; non-MDR n = 50): 0% | Percentage R ([1]; non-MDR n = 50): 0% | Percentage S ([1]; non-MDR n = 50): 100% | Cumulative % at MIC ([1]; non-MDR n=50, MIC 0.5 µg/mL): 72% | No. of isolates at MIC ([1]; non-MDR n=50, MIC 0.5 µg/mL): 1 | Cumulative % at MIC ([1]; non-MDR n=50, MIC 1 µg/mL): 74% | No. of isolates at MIC ([1]; non-MDR n=50, MIC 1 µg/mL): 1 | Cumulative % at MIC ([1]; non-MDR n=50, MIC 2 µg/mL): 78% | No. of isolates at MIC ([1]; non-MDR n=50, MIC 2 µg/mL): 2 | Cumulative % at MIC ([1]; non-MDR n=50, MIC […] µg/mL): 100% | No. of isolates at MIC ([1]; non-MDR n=50, MIC […] µg/mL): 3 | Cumulative % at MIC ([1]; non-MDR n=50, MIC ≤[…]): 70% | No. of isolates at MIC ([1]; non-MDR n=50, MIC ≤[…]): 35 | MIC (QC, repeated tests) [2]: 1 µg/mL | MIC (QC, repeated tests) [3]: 2 µg/mL
